According to the NIST ThermoML archive (doi:10.1021/je400683g):
Numbers after ± are expanded uncertainties.

Legend:
[1] = for surface tension liquid-gas: Maximal bubble pressure; for vapor or sublimation pressure: Closed cell (Static) method
[2] = refractive index (Na D-line) (dimensionless); settings: 298.15 K; 101.33 kPa; Liquid; Standard Abbe refractometry
[3] = xn = mol fraction of the nth substance listed; settings: 298.15 K, Maximal bubble pressure

CCO [ethanol]
surface tension liquid-gas ([1]; 298.15 K): 22.1 ± 0.26 mN/m
vapor or sublimation pressure ([1]; 323.51 K, Liquid): 30.01 ± 0.08 kPa
vapor or sublimation pressure ([1]; 326.79 K, Liquid): 35.01 ± 0.09 kPa
vapor or sublimation pressure ([1]; 329.68 K, Liquid): 40.01 ± 0.1 kPa
vapor or sublimation pressure ([1]; 332.27 K, Liquid): 45.01 ± 0.1 kPa
vapor or sublimation pressure ([1]; 334.57 K, Liquid): 50 ± 0.2 kPa
vapor or sublimation pressure ([1]; 334.63 K, Liquid): 50.01 ± 0.11 kPa
vapor or sublimation pressure ([1]; 336.8 K, Liquid): 55.01 ± 0.11 kPa
vapor or sublimation pressure ([1]; 338.81 K, Liquid): 60.01 ± 0.12 kPa
vapor or sublimation pressure ([1]; 340.68 K, Liquid): 65.01 ± 0.13 kPa
vapor or sublimation pressure ([1]; 342.43 K, Liquid): 70.01 ± 0.14 kPa
vapor or sublimation pressure ([1]; 344.02 K, Liquid): 75 ± 0.34 kPa
vapor or sublimation pressure ([1]; 344.09 K, Liquid): 75.01 ± 0.14 kPa
vapor or sublimation pressure ([1]; 345.64 K, Liquid): 80.01 ± 0.15 kPa
vapor or sublimation pressure ([1]; 347.13 K, Liquid): 85.01 ± 0.16 kPa
vapor or sublimation pressure ([1]; 348.54 K, Liquid): 90.01 ± 0.16 kPa
vapor or sublimation pressure ([1]; 349.56 K, Liquid): 94 ± 0.42 kPa
vapor or sublimation pressure ([1]; 349.89 K, Liquid): 95.01 ± 0.17 kPa
vapor or sublimation pressure ([1]; 351.51 K, Liquid): 101.33 ± 0.2 kPa
vapor or sublimation pressure ([1]; 351.68 K, Liquid): 102.01 ± 0.18 kPa
refractive index [2]: 1.36068 ± 0.00031

Cc1ccc(C)o1 [2,5-dimethylfuran] + CCO
surface tension liquid-gas ([3]; x2 = 0): 25.1 ± 0.27 mN/m
surface tension liquid-gas ([3]; x2 = 0.049): 24.96 ± 0.27 mN/m
surface tension liquid-gas ([3]; x2 = 0.09): 24.89 ± 0.27 mN/m
surface tension liquid-gas ([3]; x2 = 0.176): 24.68 ± 0.27 mN/m
surface tension liquid-gas ([3]; x2 = 0.29): 24.38 ± 0.27 mN/m
surface tension liquid-gas ([3]; x2 = 0.386): 24.22 ± 0.27 mN/m
surface tension liquid-gas ([3]; x2 = 0.492): 23.93 ± 0.27 mN/m
surface tension liquid-gas ([3]; x2 = 0.594): 23.73 ± 0.26 mN/m
surface tension liquid-gas ([3]; x2 = 0.701): 23.4 ± 0.26 mN/m
surface tension liquid-gas ([3]; x2 = 0.804): 23.02 ± 0.26 mN/m
surface tension liquid-gas ([3]; x2 = 0.915): 22.73 ± 0.26 mN/m
surface tension liquid-gas ([3]; x2 = 0.963): 22.5 ± 0.26 mN/m

Cc1ccc(C)o1 [2,5-dimethylfuran]
surface tension liquid-gas ([1]; 298.15 K): 25.1 ± 0.27 mN/m
mass density ([1]; 298.15 K, 101.33 kPa, Liquid, Vibrating tube method): 896.54 ± 0.09 kg/m3
vapor or sublimation pressure ([1]; 345.2 K, Liquid): 50 ± 0.25 kPa
vapor or sublimation pressure ([1]; 357.18 K, Liquid): 75 ± 0.41 kPa
vapor or sublimation pressure ([1]; 364.36 K, Liquid): 94 ± 0.56 kPa
vapor or sublimation pressure ([1]; 366.83 K, Liquid): 101.33 ± 0.6 kPa
refractive index [2]: 1.44012 ± 0.00032

CCO [ethanol] + Cc1ccc(C)o1
surface tension liquid-gas ([3]; x1 = 1): 22.1 ± 0.26 mN/m
